These results are taken from ChEMBL document CHEMBL1201862, “PubChem BioAssay data set” (2004).

The structures appear in SMILES notation.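 Results reflect a 48-hour exposure of cells in 96-well plates to compound at five concentrations. GI50 = concentration required for 50% inhibition of growth.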 Activity calls are given as the source filed them. Rule as the data show it: active = GI50 up to about 1.1 µM and inactive = higher.

Common to all, as to assay: growth of human tumour cells (NCI), 48 h
Experiment [1] has as its system NCI-H23.
Experiment [2] deals with HCC 2998.
Experiment [3] concerns SN12C.
For experiment [4], the system named is SNB-75.
The test system of experiment [5] is KM12.
For experiment [6], the system named is RPMI-8226.
The test system of experiment [7] is HCT-15.
Experiment [8] relates to NCI-H460.
The subject of experiment [9] is CAKI-1.
Experiment [10] relates to NCI-H226.
Experiment [11] deals with HOP-62.
Experiment [12] deals with SW-620.
Experiment [13] has as its system OVCAR-3.
Experiment [14] concerns EKVX.
The subject of experiment [15] is A549.
The test system of experiment [16] is SF-268.
In experiment [17] the test system is NCI-H522.
Experiment [18] relates to IGROV-1.
In experiment [19] the test system is OVCAR-8.
Experiment [20] concerns ACHN.

On to `CNC(=O)OCc1nc(SC)n(C)c1CO`, for which the GI50 in experiment [1], in [2], in [3], in experiment [4], in experiment [5] and in experiment [6] was > 100 µM (inactive) each time. The GI50 in experiment [7] is more than 100 µM; in [8], > 100 µM (inactive); in [9], > 100 µM (inactive); in [10], > 100 µM (inactive); in experiment [11], > 100 µM (inactive); in experiment [12] it was > 100 µM (inactive). For the same compound, the GI50 in [13], in experiment [14], in experiment [15], in [16], in experiment [17] and in experiment [18] was > 100 µM (inactive) in each case. In addition, in experiment [19], the GI50 was > 100 µM (inactive).
Take `CC1=NN(C(=O)c2ccccc2)C(=O)C1/N=N/c1ccccc1C(=O)O` (centres undefined): the GI50 in experiment [1] is 3.81 µM (inactive); in experiment [2] it was 19.8 µM (inactive); in [3] it was 7.26 µM (inactive); in experiment [4], 1.8 µM (inactive); in experiment [5], 7.8 µM (inactive); in experiment [6], 4.36 µM (inactive). Moreover, the GI50 was 4.85 µM in experiment [7]; 3.67 µM (inactive) in [8]; 6.53 µM (inactive) in [9]; 9.46 µM (inactive) in [10]; 6.15 µM (inactive) in [11]; 16.8 µM (inactive) in experiment [12]. For the same compound, the GI50 in experiment [13] is 4.71 µM (inactive); in experiment [14], > 100 µM (inactive); in experiment [15], 3.77 µM (inactive); in [16], 9.79 µM (inactive); in experiment [17] it was 8.05 µM (inactive); in [18], 4.14 µM (inactive). The GI50 in [19] was 7.87 µM (inactive).
Turning to `COc1c(C(=O)/C(=N/Nc2ccccc2)C(C)=O)c(O)c(OC)c2occc12`, the GI50 is 33.3 µM (inactive) in experiment [1]; 82.4 µM (inactive) in [2]; 63.7 µM (inactive) in experiment [3]; 19.8 µM (inactive) in [4]; 27.7 µM (inactive) in experiment [5]; 17.2 µM (inactive) in experiment [6]. In addition, the GI50 was 56.2 µM in [7]; 38.8 µM (inactive) in experiment [8]; 50.4 µM (inactive) in [20]; > 100 µM (inactive) in [9]; 52.1 µM (inactive) in experiment [10]; 97.5 µM (inactive) in [11]. The GI50 in [12] was 77.8 µM (inactive); in experiment [13], 67.9 µM (inactive); in experiment [14], 22.2 µM (inactive); in experiment [15], 52.6 µM (inactive); in experiment [16], > 100 µM (inactive); in experiment [17], 41.8 µM (inactive). The GI50 in experiment [18] is 67.9 µM (inactive); in [19], 62.2 µM (inactive).
Turning to `O=c1[nH]c2ccc([N+](=O)[O-])cc2nc1/C(=N/Nc1ccccc1)C(O)c1ccco1` (centres undefined), the GI50 in experiment [1] was 65.3 µM (inactive); in experiment [2], 38.5 µM (inactive); in [3] it was > 100 µM (inactive); in [4], 36.3 µM (inactive); in experiment [5], 33.6 µM (inactive); in [6], 34.7 µM (inactive). Besides, the GI50 is 18.2 µM in [7]; > 100 µM (inactive) in [8]; 33.9 µM (inactive) in experiment [20]; > 100 µM (inactive) in experiment [10]; > 100 µM (inactive) in experiment [11]; 39.4 µM (inactive) in experiment [12]. Also, the GI50 in [13] was > 100 µM (inactive); in [14], > 100 µM (inactive); in experiment [15], 69.3 µM (inactive); in experiment [16] it was 71.6 µM (inactive); in [17], 6.44 µM (inactive); in experiment [18] it was 87.9 µM (inactive). In addition, the GI50 in experiment [19] was > 100 µM (inactive).
On to `CCOC(=O)NC(=O)c1cn(C2CCCCC2)c(=O)n(C)c1=O`, for which the GI50 in [1], in experiment [2], in experiment [3], in [4], in [5] and in experiment [6] was > 100 µM (inactive) each time. Moreover, the GI50 in experiment [7] was more than 100 µM; in [8], > 100 µM (inactive); in [20] it was > 100 µM (inactive); in experiment [9], > 100 µM (inactive); in experiment [10] it was > 100 µM (inactive); in [11], > 100 µM (inactive). Besides, the GI50 in [12], in [13], in experiment [15], in experiment [16], in [17] and in [18] was > 100 µM (inactive) in each case. Also, the GI50 in experiment [19] was > 100 µM (inactive).
With `COc1ccc(C2c3cc4c(cc3OC(Nc3ccccc3)C2C)OCO4)cc1` (centres undefined), the GI50 in experiment [1] was 64 µM (inactive); in experiment [2], 67.9 µM (inactive); in experiment [3] it was 61.1 µM (inactive); in experiment [4], 44.1 µM (inactive); in experiment [5], 28.6 µM (inactive); in experiment [6], 26 µM (inactive). The GI50 was 33.6 µM in experiment [7]; 7.98 µM (inactive) in experiment [8]; 21.8 µM (inactive) in experiment [20]; 25.4 µM (inactive) in experiment [9]; 41.1 µM (inactive) in [10]; > 100 µM (inactive) in experiment [11]. The GI50 in [12] was 64.3 µM (inactive); in experiment [13] it was 53.1 µM (inactive); in [14] it was 8.59 µM (inactive); in experiment [15], 22.5 µM (inactive); in experiment [16], 42.9 µM (inactive); in experiment [17], 12.1 µM (inactive). Further, the GI50 in [18] was 99.8 µM (inactive).
As for `Cc1c2cc[n+](C)cc2c(COC2OC(CO)C(O)C2O)c2c3ccccc3n(C)c12` (centres undefined), the GI50 was 58.3 µM (inactive) in [1]; > 100 µM (inactive) in experiment [2]; 6.85 µM (inactive) in experiment [3]; 25 µM (inactive) in experiment [4]; > 100 µM (inactive) in experiment [5]; 99.5 µM (inactive) in experiment [6]. Moreover, the GI50 is more than 100 µM in [7]; 19.2 µM (inactive) in experiment [8]; > 100 µM (inactive) in experiment [9]; 28.6 µM (inactive) in experiment [10]; 58.6 µM (inactive) in [11]; > 100 µM (inactive) in [12]. Moreover, the GI50 is > 100 µM (inactive) in [13]; > 95.5 µM (inactive) in experiment [14]; 74.3 µM (inactive) in experiment [15]; 15.8 µM (inactive) in [16]; 63.1 µM (inactive) in experiment [17]; > 100 µM (inactive) in experiment [18]. Moreover, the GI50 in [19] was 99.1 µM (inactive).
As to `CNc1cc2c(c3ccccc13)C(CCl)CN2C(=O)c1cc2cc(OC)c(OC)c(OC)c2[nH]1` (centres undefined), the GI50 in [1] was 0.000465 µM (active); in [2] it was < 0.01 µM (active); in experiment [3] it was 0.000881 µM (active); in experiment [4] it was 0.00252 µM (active); in experiment [5], 0.0038 µM (active); in [6], 0.00455 µM (active). The GI50 in experiment [7] was 0.00137 µM; in experiment [8] it was 0.000212 µM (active); in experiment [20] it was 0.000124 µM (active); in experiment [9], 0.000703 µM (active); in experiment [10], 0.0138 µM (active); in [11], 0.00281 µM (active). The GI50 was 0.00144 µM (active) in [12]; 0.0226 µM (active) in experiment [13]; 0.00381 µM (active) in [14]; 0.00153 µM (active) in experiment [15]; 0.0017 µM (active) in experiment [16]; < 0.01 µM (active) in experiment [17]. Besides, the GI50 was 0.00243 µM (active) in experiment [18] and 0.00123 µM (active) in [19].
